Measured values reported in US20250027041A1, “COMPOSITION FOR INDUCING TRANSDIFFERENTIATION AND STEM CELLS TREATED THEREWITH” (YJ CERAPEUTICS INC., priority 2021, published 2025).

Assays:
[1] = tested on: UCB-MSCs; test: CellTiter-Glo proliferation assay; format: cell-based, human; conditions: 10, 20, or 40 μM; 3 or 5 days
Experimental: Thereafter, 100 μl of a CellTiter-Glo reagent prepared by mixing a CellTiter-Glo Buffer with a CellTiter-Glo substrate was added to each well of a 96-well plate, covered with a plate cover, and incubated at room temperature for 30 minutes.

[2] = tested on: human UCB-MSCs; test: RNA-seq gene expression; format: cell-based; conditions: UCB-MSCs treated with YJ102 30 μM for 3 days
Experimental: The expression gene profile of ciNSC5, which was transdifferentiated from human UCB-MSCs by treating YJ102 for 5 days, was analyzed using genome-wide RNA-seq. Specifically, 1×10^5 human UCB-MSCs were dispensed in a 60 mm culture dish (a control group dispensed at 1.67×10^4), the cells were treated with YJ102 dissolved at 30 mM in DMSO at a concentration of 30 μM (the control group treated with DMSO), and incubated at 37° C. for 2, 3, or 5 days. Thereafter, the culture medium was removed, washed with PBS, and the cells were collected with a scraper and transferred to a microcentrifuge tube. PBS was removed by centrifugation, and the cells were added with 500 μl of a Tri-RNA Reagent and mixed well by pipetting. The mixture was added with 100 μl of chloroform, the tube was mixed by vortexing for 15 seconds, and then centrifuged at 4° C. at 14,000 rpm for 20 minutes. Thereafter, the upper aqueous phase was transferred to a new microcentrifuge tube using a pipette, and added and mixed with 550 μl of isopropanol. The mixture was centrifuged at 14,000 rpm at 4° C. for 20 minutes, the supernatant was discarded, and the pellet was washed with 1 ml of 70% ethanol. […] The pellet was resuspended in 100 μl RNase-free DIW, centrifuged at 14,000 rpm for 10 minutes at 4° C. to remove the supernatant, air-dried, and then the RNA concentration was quantified using nanodrop. […]

[3] = tested on: AD-MSC; test: Tuj1 immunochemical assay, AD-MSC; format: cell-based, human; conditions: 10, 20 or 30 μM, 5 days
Experimental: (§1) To determine whether transdifferentiation into ciNSC5, neural progenitor cells, occurred similarly even in MSCs of different origins when human UCB-MSCs were treated with YJ101, YJ102, or YJ103 for 5 days, the expression of neuronal markers in differentiated ciNSC5 was confirmed by immunochemical assay using MSCs from human adipose-derived mesenchymal stem cells (AD-MSCs), human bone marrow-derived mesenchymal stem cells ([…]) and human umbilical cord blood-derived mesenchymal stem cells (UCB-MSCs; Promo Cells). Specifically, AD-MSC (StemPro™ Human Adipose-Derived Stem Cell, Gibco, Passage #6) was incubated in a MesenPRO RS™ medium, BM-MSC (ATCC, Passage #6) was incubated in a Mesenchymal Stem Cell Basal Medium for Adipose, Umbilical and Bone Marrow-derived MSC (Cat. PCS-500-030, ATCC) medium, and UCB-MSC (Promo Cell, Passage #6) was incubated in a CellCor™ CD MSC (Cat. YSP001, Xell Therapeutics) medium, and then dispensed at 2.1×10^4 cells/well in a 12-well plate with an 18 mm cover glass (circular) (DMSO control group was dispensed at 3.5×10^3 cells/well). […] The culture medium was removed, washed with PBS, and then fixed with 4% paraformaldehyde at room temperature for 10 minutes. After washed three times with PBS, the cells were permeabilized with PBS-T containing 0.5% Triton X-100 for 10 minutes, washed with PBS-T three times for 10 minutes each, and then blocked with a blocking solution (PBS-T containing 5% BSA and 5% goat serum) for 1 hour. Thereafter, the cells were treated with anti-Tuj1 antibody (Cat. 801201, BioLegend) diluted 1/5000 in a blocking solution and incubated at 4° C. overnight. The next day, the cells were washed 10 times for 10 minutes each with PBS-T, and then treated with anti-mouse IgG-cy3 diluted 1/2000 in a blocking solution, and incubated for 1 hour in dark conditions. Next, the cells were washed 10 times for 10 minutes each with PBS-T, mounted with a mounting solution containing DAPI, and then observed with a confocal microscope.

[4] = tested on: BM-MSC; test: Tuj1 immunochemical assay, BM-MSC; format: cell-based, human; conditions: 10, 20 or 30 μM, 5 days
Experimental: as §1

**Q.** For `CCc1ccc(N(C(=O)COC)c2nc3cc(Cl)ccc3o2)cc1` [YJ102], which “cell proliferation (CellTiter-Glo)” value [1] is on record?
**A.** reduced cell proliferation in a concentration-dependent manner

**Q.** And the “expression of cell division-related genes (RNA-seq)” value [2]?
**A.** decreased

**Q.** And the “expression of nervous system-related genes (RNA-seq)” value [2]?
**A.** increased

**Q.** And the “expression of Tuj1” value [3]?
**A.** increased

**Q.** And the “expression of Tuj1” value [4]?
**A.** increased
